The text below walks through data of ChEMBL document CHEMBL5727600, “1,4-dicarbonyl-piperidyl derivatives” (2020).

As a reminder, the IC50 is the concentration that inhibits the measured activity by half.

Test [1] has as its target T1, Poly [ADP-ribose] polymerase tankyrase-2 (Homo sapiens, UniProt Q9H2K2).
T1 sequence (Q9H2K2 whole entry): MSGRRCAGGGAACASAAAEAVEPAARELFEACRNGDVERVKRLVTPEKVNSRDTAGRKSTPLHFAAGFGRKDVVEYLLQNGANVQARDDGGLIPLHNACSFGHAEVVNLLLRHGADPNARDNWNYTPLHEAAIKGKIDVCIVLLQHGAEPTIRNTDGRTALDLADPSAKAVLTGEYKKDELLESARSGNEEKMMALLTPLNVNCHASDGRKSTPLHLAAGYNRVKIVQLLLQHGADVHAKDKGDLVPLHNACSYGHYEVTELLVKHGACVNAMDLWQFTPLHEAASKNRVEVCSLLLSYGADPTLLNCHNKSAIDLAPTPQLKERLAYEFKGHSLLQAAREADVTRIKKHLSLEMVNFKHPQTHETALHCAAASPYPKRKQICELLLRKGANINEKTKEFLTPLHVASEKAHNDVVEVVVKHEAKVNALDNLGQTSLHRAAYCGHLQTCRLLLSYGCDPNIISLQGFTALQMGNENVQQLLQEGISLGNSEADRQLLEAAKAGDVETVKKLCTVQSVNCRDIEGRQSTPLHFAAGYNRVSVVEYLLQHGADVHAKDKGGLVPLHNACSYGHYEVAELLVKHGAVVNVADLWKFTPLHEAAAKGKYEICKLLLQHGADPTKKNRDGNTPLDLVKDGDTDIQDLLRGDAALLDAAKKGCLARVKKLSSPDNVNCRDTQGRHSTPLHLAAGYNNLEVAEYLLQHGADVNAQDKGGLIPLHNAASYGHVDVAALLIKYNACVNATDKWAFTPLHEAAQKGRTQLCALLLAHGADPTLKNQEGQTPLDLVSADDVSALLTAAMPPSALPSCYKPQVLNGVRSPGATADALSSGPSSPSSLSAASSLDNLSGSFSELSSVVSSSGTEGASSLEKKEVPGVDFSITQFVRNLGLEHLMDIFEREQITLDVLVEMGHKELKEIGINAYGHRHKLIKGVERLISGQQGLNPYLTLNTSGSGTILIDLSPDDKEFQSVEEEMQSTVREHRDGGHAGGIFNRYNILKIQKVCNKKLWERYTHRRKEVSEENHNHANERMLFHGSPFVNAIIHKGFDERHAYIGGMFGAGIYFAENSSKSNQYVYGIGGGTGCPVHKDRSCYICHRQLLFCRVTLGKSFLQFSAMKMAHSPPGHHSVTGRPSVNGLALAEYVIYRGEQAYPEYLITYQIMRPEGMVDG
Briefly: Biochemical Activity Assay: TNKS 1 and 2: The activity ELISA is performed in 384 well Glutathione coated microtiter plates (Express capture Glutathione coated plate, Biocat, Heidelberg, Germany). The plates are pre-equilibrated with PBS. Then the plates are incubated with 50 μl 20 ng/well GST-tagged Tnks-1 (1023-1327 aa, prepared in-house), respectively GST-tagged Tnks-2 (873-1166 aa, prepared …. Background: In an ELISA, binding on a coated surface is turned into a signal by an enzyme label.

In test [2] the target is T2, Poly [ADP-ribose] polymerase tankyrase-1 (Homo sapiens, UniProt O95271).
T2 sequence (O95271 whole entry): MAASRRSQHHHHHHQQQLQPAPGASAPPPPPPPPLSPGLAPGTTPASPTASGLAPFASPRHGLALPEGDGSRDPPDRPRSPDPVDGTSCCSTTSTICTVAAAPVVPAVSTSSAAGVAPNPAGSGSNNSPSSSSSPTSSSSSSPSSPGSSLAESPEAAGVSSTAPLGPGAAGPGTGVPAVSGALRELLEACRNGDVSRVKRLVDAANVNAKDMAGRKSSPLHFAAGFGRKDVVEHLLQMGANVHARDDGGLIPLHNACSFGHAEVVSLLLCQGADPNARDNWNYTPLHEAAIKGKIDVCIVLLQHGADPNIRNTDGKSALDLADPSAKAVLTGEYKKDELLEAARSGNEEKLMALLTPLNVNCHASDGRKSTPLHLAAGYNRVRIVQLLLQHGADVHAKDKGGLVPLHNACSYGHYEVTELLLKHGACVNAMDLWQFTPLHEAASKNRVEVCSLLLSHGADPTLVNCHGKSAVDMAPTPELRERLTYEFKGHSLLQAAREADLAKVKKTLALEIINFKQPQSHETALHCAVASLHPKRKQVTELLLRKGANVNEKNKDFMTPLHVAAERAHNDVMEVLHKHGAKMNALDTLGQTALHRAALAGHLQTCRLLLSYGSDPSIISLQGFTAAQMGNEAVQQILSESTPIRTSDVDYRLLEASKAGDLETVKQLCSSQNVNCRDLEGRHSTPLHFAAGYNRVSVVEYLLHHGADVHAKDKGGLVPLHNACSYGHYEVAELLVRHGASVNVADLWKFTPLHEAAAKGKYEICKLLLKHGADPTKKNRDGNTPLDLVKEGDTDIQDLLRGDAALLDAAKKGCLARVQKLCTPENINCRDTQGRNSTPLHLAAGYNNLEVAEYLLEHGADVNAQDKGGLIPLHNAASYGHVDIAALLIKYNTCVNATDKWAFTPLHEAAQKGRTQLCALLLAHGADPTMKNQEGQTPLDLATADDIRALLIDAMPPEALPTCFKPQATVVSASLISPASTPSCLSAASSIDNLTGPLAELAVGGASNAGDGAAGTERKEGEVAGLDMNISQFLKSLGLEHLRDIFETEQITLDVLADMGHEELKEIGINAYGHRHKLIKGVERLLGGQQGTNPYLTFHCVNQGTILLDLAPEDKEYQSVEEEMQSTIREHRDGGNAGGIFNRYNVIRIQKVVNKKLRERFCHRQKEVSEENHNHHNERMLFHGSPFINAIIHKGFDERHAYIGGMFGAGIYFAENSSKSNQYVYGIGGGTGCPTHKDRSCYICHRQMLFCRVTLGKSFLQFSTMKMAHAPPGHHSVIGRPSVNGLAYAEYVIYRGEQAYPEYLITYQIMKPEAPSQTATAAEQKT
Briefly: Biochemical Activity Assay: TNKS 1 and 2: The activity ELISA is performed in 384 well Glutathione coated microtiter plates (Express capture Glutathione coated plate, Biocat, Heidelberg, Germany). The plates are pre-equilibrated with PBS. Then the plates are incubated with 50 μl 20 ng/well GST-tagged Tnks-1 (1023-1327 aa, prepared in-house), respectively GST-tagged Tnks-2 (873-1166 aa, prepared in-house) in assay buffer (50 mM HEPES, 4 mM Mg-chloride, 0.05% Pluronic F-68, 2 mM DTT, pH 7.7) overnight at 4° C. The plates are washed 3 times with PBS-Tween-20. The wells are blocked by incubation at room temperature for 20 minutes with 50 μl blocking buffer (PBS, 0.05% Tween-20, 0.5% BSA). Afterwards the plates are washed 3 times with PBS-Tween-20. The enzymatic reaction is performed in 50 μl reaction solution (50 mM HEPES, 4 mM Mg-chloride, 0.05% Pluronic F-68, 1.4 mM DTT, 0.5% DMSO, pH 7.7) with 10 μM bio-NAD (Biolog, Life science Inst., Bremen, Germany) as co-substrate in the absence or presence of the test compound (10 dilution concentrations) for 1 hour at 30° C. The reaction is stopped by 3 times washing with PBS-Tween-20. For the detection 50 μl of 20 ng/μl Streptavidin, HRP conjugate (MoBiTec, Göttingen, Germany) in PBS/0.05% Tween-20/0.01% BSA are added and the plates are incubated for 30 minutes at room temperature. […].

Take `Cc1cc(F)cc2c(=O)[nH]c(C[C@@H](C)CC(=O)N3CCC(C(=O)c4cnn(C)c4)CC3)nc12`: the 50% inhibitory concentration (IC50) in test [1] was 590 pM; in test [2], 660 pM.
In the same order, the values of `Cc1cc(F)cc2c(=O)[nH]c(C[C@H](C)CC(=O)N3CCC(C(=O)c4cnn(C)c4)CC3)nc12` are 200 pM and 310 pM.
